For experiment [1], the system named is Du145 cells. The experiment is described as follows: Calcein AM cytotoxicity assay, Du145. The format is cell-based. The note with it: Homo sapiens, DU-145; Du145, Calcein AM, 72 h; read-out: IC50. The text has this:
(§1) Five serial 1:2 dilutions were made with anhydrous DMSO at 100× the final concentration used in the assay.

Experiment [2] has as its system Du145 cells. The experiment is described as follows: Cell Titer-Glo cytotoxicity assay, Du145. The format is cell-based. The settings on record: Homo sapiens, DU-145; Du145, Cell Titer-Glo, 72 h; read-out: IC50.
Excerpt: as §1

Experiment [3] concerns HCT-116 cells. The experiment is described as follows: Calcein AM cytotoxicity assay, HCT-116. The format is cell-based. The note with it: Homo sapiens; HCT-116, Calcein AM, 72 h; read-out: IC50.
Excerpt: as §1

Experiment [4] deals with HCT-116 cells. The experiment is described as follows: Cell Titer-Glo cytotoxicity assay, HCT-116. It is filed as cell-based. The note with it: Homo sapiens; HCT-116, Cell Titer-Glo, 72 h; read-out: IC50.
Excerpt: as §1
In general terms: Cellular ATP, detected with luciferase, serves as a proxy for viable cell number.

Experiment [5] deals with Hep3B cells. The experiment is described as follows: Calcein AM cytotoxicity assay, Hep3B. It is filed as cell-based. The note with it: Homo sapiens, Calcein AM, 72 h, read-out: IC50.
Excerpt: as §1

Experiment [6] relates to Hep3B cells. The experiment is described as follows: Cell Titer-Glo cytotoxicity assay, Hep3B. The format is cell-based. The note with it: Homo sapiens, Cell Titer-Glo, 72 h, read-out: IC50.
Excerpt: as §1

In experiment [7] the test system is SF-268 cells. Kind of experiment: Calcein AM cytotoxicity assay, SF-268. The note with it: Homo sapiens; SF-268, Calcein AM, 72 h; read-out: IC50. It is filed as cell-based.
Excerpt: as §1

In experiment [8] the test system is SF-268 cells. The experiment is described as follows: Cell Titer-Glo cytotoxicity assay, SF-268. It is filed as cell-based. The note with it: Homo sapiens; SF-268, Cell Titer-Glo, 72 h; read-out: IC50.
Excerpt: as §1

For experiment [9], the system named is SK-OV-3 cells. Kind of experiment: Calcein AM cytotoxicity assay, SK-OV-3. The format is cell-based. The note with it: Homo sapiens; SK-OV-3, Calcein AM, 72 h; read-out: IC50.
Excerpt: as §1

Experiment [10] relates to SK-OV-3 cells. The experiment is described as follows: Cell Titer-Glo cytotoxicity assay, SK-OV-3. It is filed as cell-based. The note with it: Homo sapiens; SK-OV-3, Cell Titer-Glo, 72 h; read-out: IC50.
Excerpt: as §1

Experiment [11] concerns NCI/ADR RES cells. The experiment is described as follows: Calcein AM cytotoxicity assay, NCI/ADR-RES. The format is cell-based. The settings on record: Homo sapiens, Calcein AM, 72 h, read-out: IC50.
Excerpt: as §1

Experiment [12] concerns NCI/ADR RES cells. Kind of experiment: Cell Titer-Glo cytotoxicity assay, NCI/ADR-RES. It is filed as cell-based, human. The note with it: Homo sapiens; NCI/ADR-RES, Cell Titer-Glo, 72 h; read-out: IC50.
Excerpt: as §1

The subject of experiment [13] is NCI-H460 cells. The experiment is described as follows: Calcein AM cytotoxicity assay, NCI-H460. The format is cell-based. The note with it: Homo sapiens; NCI-H460, Calcein AM, 72 h; read-out: IC50.
Excerpt: as §1

For experiment [14], the system named is NCI-H460 cells. The experiment is described as follows: Cell Titer-Glo cytotoxicity assay, NCI-H460. The format is cell-based, human. The settings on record: Homo sapiens; NCI-H460, Cell Titer-Glo, 72 h; read-out: IC50.
Excerpt: as §1

In experiment [15] the test system is MCF7 cells. The experiment is described as follows: Calcein AM cytotoxicity assay, MCF7. It is filed as cell-based. The note with it: Homo sapiens; MCF7, Calcein AM, 72 h; read-out: IC50.
Excerpt: as §1

The subject of experiment [16] is MCF7 cells. The experiment is described as follows: Cell Titer-Glo cytotoxicity assay, MCF7. It is filed as cell-based, human. The note with it: Homo sapiens; MCF7, Cell Titer-Glo, 72 h; read-out: IC50.
Excerpt: as §1

In experiment [17] the test system is NmuMG mouse mammary normal epithelial cells. Kind of experiment: Calcein AM cytotoxicity assay, NmuMG. The format is cell-based. The note with it: Epithelial cell, NmuMG, Calcein AM, 72 h, read-out: IC50.
Excerpt: as §1

Experiment [18] shares this test system. Kind of experiment: Cell Titer-Glo cytotoxicity assay, NmuMG. The format is cell-based. The note with it: Mus musculus, Epithelial cell; NmuMG, Cell Titer-Glo, 72 h; read-out: IC50.
Excerpt: as §1

Experiment [19] has as its system HT-29 cells. The experiment is described as follows: MTT cytotoxicity assay, HT-29. The format is cell-based. The note with it: Homo sapiens; HT-29, MTT, 24 h; read-out: IC50.
Excerpt: The IC50 value for each library member represents at least twelve replicates of dose-response experiments conducted over five concentrations. […] In this assay, live cells were distinguished by the intracellular enzymatic activity that converts the cell-permeable molecule MTT to strongly colored formazan crystals, which are retained within live cells and absorb light at 570 nm.
MTT Cytotoxicity Assay. HT-29 cell lines were maintained in RPMI medium 1640 supplemented with 10% (wt/vol) FBS and 1% penicillin-streptomycin (PS) (100 units/mL and 100 μg/mL). Cells were harvested by trypsinization using 0.25% trypsin and 0.1% EDTA and plated at a density of 2,000-5,000 cells per well of each 96-well microtiter plate. Cells were grown for 24 h at 37° C., with 5% CO2/95% air in a humidified incubator to allow cell attachment to occur before compound addition. Library members were stored at −20° C. under desiccating conditions before the assay. Library member stocks (1000×) were prepared in falcon tubes (BD Biosciences). Five dilutions were made with DMSO at 1000× the final concentration used in the assay. The 1000× stocks (3 μL) were diluted with complete culture medium (3 mL). Each plate contained twelve replicates of cells treated with 0.1% DMSO in complete cell culture medium that served as an individual negative control. Library member stocks (1×, 200 μL) were added to aspirated cells and replicated twelve times on each plate. Cells were incubated with the library members for 24 h before optical density reading. Test plates were removed from the incubator and washed once in sterile PBS to remove serum containing library members. Freshly-made 10×MTT solution in sterile PBS (5 mg/mL) was diluted 1:10 in serum-free culture medium and was sterilized using a 0.2 μm filter. Diluted MTT solution (1×, 50 μL) was added to each well and the plates were incubated in the dark for 2 h. Test plates were centrifuged at 1800×g for 5 min at 4° C. using a Beckman GPR centrifuge. MTT solution was removed by aspiration and 100 μL DMSO was added to each well to lyse cells and solubilize formazan crystals. Test plates were incubated in the dark at room temperature for 10 min. Plates were read for optical density at 570 nm.
IC50 Calculations. For each library member, at least three dose-response experiments were conducted on separate plates. […] To calculate IC50, percent inhibitions were plotted as a function of log[concentration] and then fit to a four-parameter logistic model that allowed for a variable Hill slope by using XLFIT 4.1 (ID Business Solutions, Emeryville, Calif.).
For experiment [20], the system named is human cancer cell lines. The experiment is described as follows: Cytotoxicity across the panel of human cancer cell lines (average, high-throughput assays). The format is cell-based. The settings on record: average across eight human cancer cell lines; MTT (HT-29) values excluded; read-out: Cancerous Average IC50 / Average IC50 in Cancer Cell Lines.
Excerpt: as §1

On to `S=C=NCc1ccccc1Br` [Compound 25, 1-bromo-2-(isothiocyanatomethyl)benzene], for which the IC50 in [1] is 3.99 µM; in experiment [2], 8.64 µM; in [3] it was 19.6 µM; in experiment [4], 3.88 µM; in [5], 5.67 µM; in [6], 16.3 µM. For the same molecule, the IC50 in [7] was 6 µM; in [8] it was 7.11 µM; in experiment [9] it was 6.32 µM; in [10], 5.01 µM; in experiment [11], above 20 µM; in experiment [12], 20.1 µM. For the same molecule, the IC50 in experiment [13] is 19.4 µM; in experiment [14] it was 17.3 µM; in experiment [15], 6.76 µM; in [16], 2.73 µM; in experiment [17], 11.3 µM; in experiment [18] it was 4.6 µM. Besides, the IC50 in [19] stood at 26.9 µM; in experiment [20], 10.1 µM.
Consider `S=C=NCc1ccc(Br)cc1` [Compound 26, 1-bromo-4-(isothiocyanatomethyl)benzene], for which the IC50 in experiment [1] is 7.67 µM; in experiment [2], 10.1 µM; in experiment [3] it was 5.16 µM; in experiment [4], 9.8 µM; in experiment [5], 7.16 µM; in [6], 6.8 µM. Further, the IC50 in experiment [7] is 10.9 µM; in [8], 6.96 µM; in experiment [9], 3.94 µM; in [10], 7.17 µM; in experiment [11], above 20 µM; in experiment [12], 22.3 µM. The IC50 in experiment [13] is 16 µM; in [14], above 20 µM; in [15], 7.08 µM; in [16], 5.92 µM; in [17], 18.3 µM; in experiment [18] it was 9.77 µM. Further, the IC50 in [19] is 47.4 µM; in experiment [20], 10.7 µM.
As to `COc1cc(OC)c(CN=C=S)c(OC)c1` [Compound 28, 2-(isothiocyanatomethyl)-1,3,5-trimethoxybenzene], the IC50 in experiment [1] is 2.54 µM; in experiment [2] it was 4.8 µM; in experiment [3], 9.23 µM; in [4], 4.55 µM; in [5] it was 1.87 µM; in [6], 3.21 µM. Besides, the IC50 in experiment [7] was 4.61 µM; in experiment [8], 3.05 µM; in experiment [9], 3.93 µM; in experiment [10] it was 4.75 µM; in experiment [11], 12 µM; in experiment [12], 15.2 µM. In addition, the IC50 in experiment [13] is 11.9 µM; in [14], 10.8 µM; in experiment [15], 5.75 µM; in [16], 3.15 µM; in experiment [17], 2.94 µM; in experiment [18] it was 2.09 µM. Moreover, the values for the IC50 in [19] and in experiment [20] were 17 µM and 6.53 µM, respectively.
Consider `S=C=NCc1ccc2c(c1)OCO2` [Compound 29, 5-(isothiocyanatomethyl)benzo[d][1,3]dioxole], for which the IC50 in experiment [1] was 2.18 µM; in [2], 6.24 µM; in experiment [3], above 20 µM; in [4], 4.77 µM; in [5] it was 3.9 µM; in experiment [6], 4.3 µM. In addition, the IC50 was 2.55 µM in experiment [7]; 3.92 µM in [8]; 2.79 µM in experiment [9]; 4.44 µM in experiment [10]; 6.39 µM in experiment [11]; 9.77 µM in experiment [12]. The IC50 in experiment [13] is 9.59 µM; in [14], 11.5 µM; in experiment [15], 3.15 µM; in experiment [16], 2.51 µM; in [17], below 12.5 µM; in [18] it was 17 µM. The IC50 in [19] is 30.3 µM; in experiment [20] it was 5.77 µM.

Values taken from patent US20080312164A1 (priority 2006, published 2008).
